Measurements as given in US12600714B2, “Substituted pyrazinecarboxamide compounds for treating diseases related to EGFR mutation” (WIGEN BIOMEDICINE TECHNOLOGY (SHANGHAI) CO., LTD., priority 2020, dated 2026).
pIC50: −log10 of the molar value.

What was measured:
[1] = molecular target: Ba/F3 (EGFR^del19/T790M/C797S) triple-mutant cells (Homo sapiens, UniProt P00533, T790M/C797S, cells depend on it, form not given); experiment: Antiproliferative activity against Ba/F3 (EGFR del19/T790M/C797S) triple-mutant cells, Cell Titer Glow; type: cell-based; details: three days after addition of compounds; read-out: Antiproliferative activity BaF3(EGFR^del19/T790M/C797S) IC50
Sequence of Ba/F3 (EGFR^del19/T790M/C797S) triple-mutant cells (P00533 with tags, fused parts or gaps DEL746-750/T790M/C797S, form open): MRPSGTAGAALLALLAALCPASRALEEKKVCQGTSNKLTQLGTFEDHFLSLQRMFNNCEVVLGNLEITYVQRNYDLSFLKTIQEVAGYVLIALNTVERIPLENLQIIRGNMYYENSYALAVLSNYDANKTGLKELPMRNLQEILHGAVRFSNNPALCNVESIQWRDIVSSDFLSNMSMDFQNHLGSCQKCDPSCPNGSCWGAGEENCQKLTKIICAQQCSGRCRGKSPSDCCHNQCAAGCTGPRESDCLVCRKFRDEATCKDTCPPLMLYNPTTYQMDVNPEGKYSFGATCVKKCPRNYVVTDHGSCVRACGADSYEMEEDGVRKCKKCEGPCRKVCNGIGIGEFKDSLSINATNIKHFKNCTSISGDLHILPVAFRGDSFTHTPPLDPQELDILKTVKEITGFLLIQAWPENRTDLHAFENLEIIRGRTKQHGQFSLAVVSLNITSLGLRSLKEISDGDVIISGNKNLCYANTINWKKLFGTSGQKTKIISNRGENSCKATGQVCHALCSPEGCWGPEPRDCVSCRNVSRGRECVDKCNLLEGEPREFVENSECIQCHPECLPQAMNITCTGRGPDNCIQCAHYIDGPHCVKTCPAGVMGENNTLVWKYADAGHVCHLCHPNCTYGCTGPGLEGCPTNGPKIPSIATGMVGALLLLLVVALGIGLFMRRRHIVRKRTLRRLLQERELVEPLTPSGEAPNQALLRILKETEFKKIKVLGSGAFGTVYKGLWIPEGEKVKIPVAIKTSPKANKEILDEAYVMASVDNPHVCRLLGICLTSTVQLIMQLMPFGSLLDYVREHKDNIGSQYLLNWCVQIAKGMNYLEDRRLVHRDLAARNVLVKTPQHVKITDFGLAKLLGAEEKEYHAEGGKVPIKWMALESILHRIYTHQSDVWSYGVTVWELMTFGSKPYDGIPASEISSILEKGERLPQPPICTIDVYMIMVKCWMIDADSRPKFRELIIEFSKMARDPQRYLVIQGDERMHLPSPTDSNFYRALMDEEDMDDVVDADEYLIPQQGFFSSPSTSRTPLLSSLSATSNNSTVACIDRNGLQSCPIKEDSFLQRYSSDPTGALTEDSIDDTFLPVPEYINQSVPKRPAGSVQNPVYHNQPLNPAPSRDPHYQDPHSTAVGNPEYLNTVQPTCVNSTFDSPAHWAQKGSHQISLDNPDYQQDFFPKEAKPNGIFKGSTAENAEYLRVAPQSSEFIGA
In short: (§1)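 Cells seeded (3000 Ba/F3 del19/T790M/C797S or 2000 A431 per well), compounds added after one day, serially diluted up to 500 nM for Ba/F3 and up to 10 μM for A431. Growth read by Cell Titer Glow after 3 days; IC50 from % growth inhibition.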

EGFR (del19/T790M/C797S) = experiment: HTRF inhibitory activity assay against EGFR (del19/T790M/C797S) enzyme; type: biochemical
In short: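 Wild-type or mutant EGFR preincubated with serially diluted compound 10 min at 28 °C, then reacted 40 min at room temperature with biotinylated TK substrate and ATP. Phosphorylation detected by HTRF (Eu-cryptate anti-TK antibody, streptavidin-XL665, 60 min), 665/615 nm ratio; % inhibition and IC50 vs control.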

EGFR (WT) = EGFR (WT) (Homo sapiens, UniProt P00533); experiment: HTRF inhibitory activity assay against EGFR (WT) enzyme; type: biochemical
Sequence of EGFR (WT) (P00533 25-1210): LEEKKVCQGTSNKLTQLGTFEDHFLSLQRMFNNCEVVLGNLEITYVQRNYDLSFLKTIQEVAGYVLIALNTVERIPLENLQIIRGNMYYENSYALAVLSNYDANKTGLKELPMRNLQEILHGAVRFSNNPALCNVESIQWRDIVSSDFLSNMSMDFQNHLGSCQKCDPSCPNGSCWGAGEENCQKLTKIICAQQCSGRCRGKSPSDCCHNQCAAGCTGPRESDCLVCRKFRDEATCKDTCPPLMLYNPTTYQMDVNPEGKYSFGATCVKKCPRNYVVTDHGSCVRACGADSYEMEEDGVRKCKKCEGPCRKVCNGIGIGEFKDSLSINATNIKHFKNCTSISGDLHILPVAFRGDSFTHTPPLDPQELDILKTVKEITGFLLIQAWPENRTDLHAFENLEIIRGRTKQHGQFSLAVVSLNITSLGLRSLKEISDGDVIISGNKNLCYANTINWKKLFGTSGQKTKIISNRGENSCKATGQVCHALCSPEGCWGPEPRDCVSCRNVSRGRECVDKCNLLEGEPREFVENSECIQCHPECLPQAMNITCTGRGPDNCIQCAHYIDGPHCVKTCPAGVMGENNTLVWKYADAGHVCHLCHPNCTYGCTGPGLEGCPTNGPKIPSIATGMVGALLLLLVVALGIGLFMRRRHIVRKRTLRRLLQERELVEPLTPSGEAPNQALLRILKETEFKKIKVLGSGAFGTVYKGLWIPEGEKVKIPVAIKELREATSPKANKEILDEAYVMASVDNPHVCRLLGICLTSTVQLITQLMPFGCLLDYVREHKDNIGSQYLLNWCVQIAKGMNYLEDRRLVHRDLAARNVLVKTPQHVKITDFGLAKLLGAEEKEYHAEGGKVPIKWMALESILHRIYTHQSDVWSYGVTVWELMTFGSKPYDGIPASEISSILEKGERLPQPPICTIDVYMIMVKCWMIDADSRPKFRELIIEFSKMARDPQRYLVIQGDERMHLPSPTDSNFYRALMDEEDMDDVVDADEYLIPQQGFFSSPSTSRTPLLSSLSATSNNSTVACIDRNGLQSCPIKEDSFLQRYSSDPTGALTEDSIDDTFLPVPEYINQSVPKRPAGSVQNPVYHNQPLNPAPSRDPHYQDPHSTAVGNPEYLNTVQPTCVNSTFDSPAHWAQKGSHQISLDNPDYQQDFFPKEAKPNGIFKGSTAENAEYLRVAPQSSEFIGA
Procedure: (§2) Inhibitory Activity Assay of the Compounds Disclosed Herein Against EGFR (del19/T790M/C797S), EGFR (L858R/T790M/C797S) or EGFR (WT) Enzymes
(§3) The inhibitory effects of the compounds against EGFR (del19/T790M/C797S), EGFR (L858R/T790M/C797S) or EGFR (WT) enzyme activity was determined by using HTRF. The procedures are as follows:
(§4) The WT or mutant EGFR proteins were incubated with a serially diluted compounds at 28° C. for 10 min followed by addition of biotin-labeled general tyrosine kinase (TK) substrate and ATP. The mixture was incubated at room temperature for 40 min for reaction. After the termination of the reaction, an Eu3+-Cryptate-labeled antibody against TK and streptavidin-XL665 were added and the mixture was incubated at room temperature for 60 min. The luminescences at 615 nm and 665 nm were detected and the ratio of 665/615 was calculated to quantify the level of TK substrate phosphorylation. Inhibition % and IC50 of the compounds were calculated relative to the control group.

EGFR (L858R/T790M/C797S) = EGFR (L858R/T790M/C797S) (Homo sapiens, UniProt P00533, C797S/L858R/T790M); experiment: HTRF inhibitory activity assay against EGFR (L858R/T790M/C797S) enzyme; type: biochemical; details: read-out: EGFR (L858R/T790M/C797S) inhibition (%) (0.3 nM compound)
Sequence of EGFR (L858R/T790M/C797S) (P00533 25-1210 T790M/C797S/L858R): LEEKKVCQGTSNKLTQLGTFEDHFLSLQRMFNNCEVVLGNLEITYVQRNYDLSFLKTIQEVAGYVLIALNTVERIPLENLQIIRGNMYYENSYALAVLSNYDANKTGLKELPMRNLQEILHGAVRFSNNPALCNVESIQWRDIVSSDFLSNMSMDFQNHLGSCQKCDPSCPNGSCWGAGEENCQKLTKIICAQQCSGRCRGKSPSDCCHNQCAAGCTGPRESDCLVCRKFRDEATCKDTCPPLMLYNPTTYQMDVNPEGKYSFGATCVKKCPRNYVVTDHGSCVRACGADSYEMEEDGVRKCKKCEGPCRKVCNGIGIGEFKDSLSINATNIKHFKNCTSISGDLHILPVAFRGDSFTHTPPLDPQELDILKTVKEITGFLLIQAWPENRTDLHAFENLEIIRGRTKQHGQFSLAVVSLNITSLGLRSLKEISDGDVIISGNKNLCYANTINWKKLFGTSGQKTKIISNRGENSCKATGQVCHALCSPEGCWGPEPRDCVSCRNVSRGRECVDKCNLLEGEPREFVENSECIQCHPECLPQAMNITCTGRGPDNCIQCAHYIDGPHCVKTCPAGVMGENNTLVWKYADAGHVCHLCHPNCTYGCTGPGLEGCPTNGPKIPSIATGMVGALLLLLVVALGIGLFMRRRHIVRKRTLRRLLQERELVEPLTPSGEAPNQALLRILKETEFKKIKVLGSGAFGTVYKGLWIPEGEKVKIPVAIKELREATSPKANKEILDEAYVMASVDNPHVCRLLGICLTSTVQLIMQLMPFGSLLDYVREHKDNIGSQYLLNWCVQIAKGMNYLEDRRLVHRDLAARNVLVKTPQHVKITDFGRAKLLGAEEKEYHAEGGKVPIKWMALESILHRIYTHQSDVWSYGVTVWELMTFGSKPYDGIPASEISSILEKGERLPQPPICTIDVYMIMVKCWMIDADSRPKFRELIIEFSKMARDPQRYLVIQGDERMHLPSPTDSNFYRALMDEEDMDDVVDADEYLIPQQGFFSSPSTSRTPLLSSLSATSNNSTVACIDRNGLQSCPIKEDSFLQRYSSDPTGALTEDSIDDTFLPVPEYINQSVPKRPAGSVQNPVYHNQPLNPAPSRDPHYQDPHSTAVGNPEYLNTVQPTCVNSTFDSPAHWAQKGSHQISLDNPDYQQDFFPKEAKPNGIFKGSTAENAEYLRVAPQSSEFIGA
Procedure: as §2, §3, §4

A431 (EGFR WT) cells = experiment: Antiproliferative activity against A431 (EGFR WT) cells, Cell Titer Glow; type: cell-based; details: Homo sapiens, A-431, 72 h; three days after addition of compounds; read-out: Antiproliferative activity A431 wild-type (WT) IC50
In short: as §1

[2] = system: PC9 cells with EGFR Del19/T790M/C797S overexpression; experiment: In vivo pharmacodynamic study, mouse PC9 (EGFR Del19/T790M/C797S) subcutaneous xenograft tumor model; parameters: species or system BALB/c nude mice; details: intragastric once daily, day 28, PC9 (EGFR Del19/T790M/C797S) xenograft
Procedure: In Vivo Pharmacodynamic Study—Mouse PC9(EGFR Del19/T790M/C797S) Subcutaneous Xenograft Tumor Model
(§5) BALB/c nude mice were grafted subcutaneously on the left dorsum with 5×10^6 PC9 cells with EGFR Del19/T790M/C797S overexpression. After the tumor grew to 100-150 mm^3, the mice were randomly divided into the following groups for intragastric administration once daily: group 1: vehicle control; group 2: compound 511 (60 mg/kg); and group 3: compound 511 (80 mg/kg). The tumor volume was measured twice weekly and at the end of treatment. Tumor growth inhibition of the compound was calculated according to the following equation: tumor growth inhibition (TGI)=1−(tumor volume on day 28 in treatment group−tumor volume on day 1 in treatment group)/(tumor volume on day 28 in vehicle control group−tumor volume on day 1 in treatment group).

[3] = system: H1975 cells carrying EGFR T790M mutation; experiment: In vivo pharmacodynamic study, mouse H1975 subcutaneous xenograft tumor model; parameters: species or system BALB/c nude mice; details: intragastric once daily, day 28, H1975 xenograft
Procedure: In Vivo Pharmacodynamic Study—Mouse H1975 Subcutaneous Xenograft Tumor Model
as §5, with “5×10^6 H1975” for “5×10^6 PC9”, “cells carrying” for “cells with”, “EGFR T790M mutation.” for “EGFR Del19/T790M/C797S overexpression.”

GI50 [1] [nM]	pIC50 (EGFR (WT))	inhibition at 0.0003 µM (EGFR (L858R/T790M/C797S)) [%]	pIC50 (A431 (EGFR WT) cells)	SMILES	EGFR (del19/T790M/C797S) inhibition (%) (0.3 nM compound) (EGFR (del19/T790M/C797S))	TGI (tumor growth inhibition) ([2]; 60 mg/kg) [%]	TGI (tumor growth inhibition) ([2]; 80 mg/kg) [%]	TGI (tumor growth inhibition) ([3]; 60 mg/kg) [%]	TGI (tumor growth inhibition) ([3]; 80 mg/kg) [%]
61	7.99	≤ 20	6.18	CCc1cc(Nc2nc(NC3CC4(COC4)C3)c(-c3cc[nH]n3)nc2C(N)=O)ccc1N1CCC(N2CCN(C)CC2)CC1 [compound 503]	+++ (+++ indicates an inhibition greater than 50%.)	–	–	–	–
4	8.77	> 50	7.00	CN1CCN(C2CCN(c3ccc(Nc4nc(NC5CC6(COC6)C5)c(-c5cccc6[nH]ccc56)nc4C(N)=O)cc3)CC2)CC1 [compound 527]	+++ (+++ indicates an inhibition greater than 50%.)	–	–	–	–
29	< 6.52	> 50	6.47	CN1CCN(C2CCN(c3ccc(Nc4nc(NC5CCOCC5)c(-c5ccncc5)nc4C(N)=O)cc3)CC2)CC1 [compound 39, 3-((4-(4-(4-methylpiperazin-1-yl)piperidin-1-yl)phenyl)amino)-6-(pyridin-4-yl)-5-((tetrahydro-2H-pyran-4-yl)amino)pyrazine-2-carboxamide]	+++ (+++ indicates an inhibition greater than 50%.)	–	–	–	–
79	< 6.52	20 to 50	6.49	CN1CCN(C2CCN(c3ccc(Nc4nc(NC5CCOCC5)c(-c5cn[nH]c5)nc4C(N)=O)cc3)CC2)CC1 [compound 57]	++ (++ indicates an inhibition from 20% to 50%)	–	–	–	–
16	< 6.52	≤ 20	7.15	CN1CCN(C2CCN(c3ccc(Nc4nc(NC5CCOCC5)c(-c5cc[nH]n5)nc4C(N)=O)cc3)CC2)CC1 [compound 55, 3-((4-(4-(4-methylpiperazin-1-yl)piperidin-1-yl)phenyl)amino)-6-(1H-pyrazol-3-yl)-5-((tetrahydro-2H-pyran-4-yl)amino)pyrazine-2-carboxamide]	+++ (+++ indicates an inhibition greater than 50%.)	–	–	–	–
9	8.55	> 50	7.22	CN1CCN(C2CCN(c3ccc(Nc4nc(NC5CCOCC5)c(-c5cccc6[nH]ccc56)nc4C(N)=O)cc3)CC2)CC1 [compound 511, 6-(1H-indol-4-yl)-3-((4-(4-(4-methylpiperazin-1-yl)piperidin-1-yl)phenyl)amino)-5-((tetrahydro-2H-pyran-4-yl)amino)pyrazine-2-carboxamide]	+++ (+++ indicates an inhibition greater than 50%.)	87.41	93.17	99	104
295	< 7.00	≤ 20	5.77	CN1CCC(Oc2nc(Nc3ccc(N4CCC(N5CCN(C)CC5)CC4)cc3)c(C(N)=O)nc2-c2ccccc2)CC1 [compound 4]	+ (+ indicates an inhibition less than or equal to 20%)	–	–	–	–
5	9.48	> 50	7.00	CN1CCN(C2CCN(c3ccc(Nc4nc(N[C@H]5CC[C@H](O)CC5)c(-c5cccc6[nH]ccc56)nc4C(N)=O)cc3)CC2)CC1 [compound 526]	+++ (+++ indicates an inhibition greater than 50%.)	–	–	–	–
4	9.57	> 50	7.30	CC(C)Nc1nc(Nc2ccc(N3CCC(N4CCN(C)CC4)CC3)cc2)c(C(N)=O)nc1-c1cccc2[nH]ccc12 [compound 521]	+++ (+++ indicates an inhibition greater than 50%.)	–	–	–	–
2	9.66	> 50	7.52	CN1CCN(C2CCN(c3ccc(Nc4nc(NC5CC5)c(-c5cccc6[nH]ccc56)nc4C(N)=O)cc3)CC2)CC1 [compound 522]	+++ (+++ indicates an inhibition greater than 50%.)	–	–	–	–
